The source of these data is patent publication US20210163459A1, “PESTICIDALLY ACTIVE AZETIDINE SULFONES AMIDE ISOXAZOLINE DERIVATIVES” (SYNGENTA CROP PROTECTION AG, priority 2018, published 2021).

Bounds are passed on as bounds.

By mortality is commonly meant the share of the test organisms that died.

Experiment [1] concerns Euschistus heros. As to the kind of experiment: Euschistus heros (Neotropical Brown Stink Bug) test on sprayed soybean leaves. The experiment is classed as in vivo. The settings on record: 120 h, application rate of 200 ppm, N2 nymphs, assessed 5 days after infestation in comparison to untreated samples, read-out: effect in at least one of the two categories (mortality or growth inhibition). The procedure: Euschistus heros(Neotropical Brown Stink Bug)
Soybean leaves on agar in 24-well microtiter plates were sprayed with aqueous test solutions prepared from 10′000 ppm DMSO stock solutions. After drying the leaves were infested with N2 nymphs. The samples were assessed for mortality and growth inhibition in comparison to untreated samples 5 days after infestation.
The following compounds gave an effect of at least 80% in at least one of the two categories (mortality or growth inhibition) at an application rate of 200 ppm: A1, A2

In experiment [2] the test system is Spodoptera littoralis. Kind of experiment: Spodoptera littoralis (Egyptian Cotton Leaf Worm) test on sprayed cotton leaf discs. The experiment is classed as in vivo. The settings on record: foliar, 72 h, application rate of 200 ppm, L1 larvae, assessed 3 days after infestation in comparison to untreated samples, read-out: control (mortality, anti-feeding effect, growth inhibition). As for the experimental part:
Spodoptera littoralis (Egyptian Cotton Leaf Worm)
Cotton leaf discs were placed onto agar in 24-well microtiter plates and sprayed with aqueous test solutions prepared from 10′000 ppm DMSO stock solutions. After drying the leaf discs were infested with five L1 larvae. The samples were assessed for mortality, anti-feeding effect, and growth inhibition in comparison to untreated samples 3 days after infestation. Control of Spodoptera littoralis by a test sample is given when at least one of the categories mortality, anti-feedant effect, and growth inhibition is higher than the untreated sample.

As for `COC(=O)OCN(C(=O)c1ccc(C2=NO[C@@](c3cc(Cl)c(F)c(Cl)c3)(C(F)(F)F)C2)cc1C)C1CN(S(=O)(=O)C(F)F)C1` [Compound A2, [[4-[(5S)-5-(3,5-dichloro-4-fluoro-phenyl)-5-(trifluoromethyl)-4H-isoxazol-3-yl]-2-methyl-benzoyl]-[1-(difluoromethylsulfonyl)azetidin-3-yl]amino]methyl methyl carbonate], the percent effect (mortality or growth inhibition) at 200 ppm in experiment [1] is at least 80%. In experiment [2], the mortality at 200 ppm was at least 80%.
